Read-outs that look alike come from different tables or passages of the source.
Columns and labels:
[1] = test system: Human umbilical vein endothelial cell (HUVEC); experiment: Survival of human vascular endothelial cells under oxidative stress (H2O2), MTT assay; assay type: cell-based; conditions: for cell viability compared with S1P: 500 μM hydrogen peroxide (FIG. 7)
Description: Human umbilical vein endothelial cell (HUVEC) used in the experiment was purchased from Promocell, and cultured in an incubator at 37° C., 5% CO2 using Endothelial Cell Growth Medium 2 as a culture medium. To confirm the efficacy of P1P drug in an oxidative stress environment, HUVEC cells were pretreated with P1P or cP1P at concentrations of 10 nM, 100 nM, and 1000 nM for 1 hour, and then exposed to oxidative stress by treatment with 500 μM hydrogen peroxide (H2O2) for 6 hours. The efficacy of the […] drug on the survival of HUVEC cells after 6 hours of exposure to oxidative stress was confirmed by MTT assay. As a comparison group, S1P was used at the same concentration and conditions.
In addition to causing inflammation, LPS promotes oxidative stress to promote vascular endothelial cell death. To analyze the effect of the present drugs, oxidative stress was induced in vascular endothelial cells by treatment with 500 μM of hydrogen peroxide.

SIRT1 = experiment: Expression of SIRT1 in macrophages, RT-PCR; assay type: cell-based; conditions: Raw 264.7 macrophages; 0.01-1 μM; RT-PCR 24 hours later (FIG. 8)
Description: The macrophage cell line used in the experiment was Raw 264.7 cell line purchased from ATCC, and Dulbeco's Modified Eagle's Media high glucose (with 10% FBS, 0.5% P/S) was used as a medium for culturing macrophages. Macrophages were cultured in an incubator at 37° C., 5% CO2. Macrophages were treated with P1P or cP1P drug at concentrations of 0.01 μM, 0.1 μM, and 1 μM, respectively and then LPS of 100 ng/ml after 4 hours, and cultured for 24 hours. The change in SIRT1 protein was measured by RT-PCR.
Expression of SIRT1 protein is very important in the treatment of sepsis. When sepsis is induced, the synthesis and activity of SIRT1 protein is reduced. Macrophages were treated with P1P drugs during culture, and the expression level of SIRT1 protein was confirmed by RT-PCR 24 hours later.

TNF-α = experiment: Inflammatory cytokine (TNF-α) secretion after LPS treatment in macrophages, ELISA; assay type: cell-based; conditions: Mus musculus
Description: The macrophage cell line used in the experiment was Raw 264.7 cell line purchased from ATCC, and Dulbeco's Modified Eagle's Media high glucose (with 10% FBS, 0.5% P/S) was used as a medium for culturing macrophages. Macrophages were cultured at 37° C., 5% CO2 incubator. Macrophages were treated with P1P or cP1P drugs at concentrations of 0.02 μM, 0.1 uM, 0.5 μM and 1 μM, respectively and then LPS of 1 ng/ml after 6 hours, and cultured for 4 hours. And then changes of inflammatory cytokines (Tumor necrosis factor alpha, TNF-α) were measured by the manufacturer's method using ELISA (BD OPTEIAT™). As a comparison group, S1P was used at the same concentration and conditions.
To this end, macrophage cell lines were treated with LPS to increase inflammatory cytokines, and the efficacy of P1P and derivatives thereof on inflammatory cytokine secretion was evaluated. Macrophage cell lines were treated with P1P drug or cP1P drug, and 6 hours later, treated with LPS at a concentration of 500 ng/mL for 4 hours.

[2] = test system: Human umbilical vein endothelial cell (HUVEC); experiment: Proliferation of human vascular endothelial cells, MTT assay; assay type: cell-based; conditions: 10 nM, 100 nM and 1000 nM, 48 hours, compared with S1P (FIG. 6)
Description: Human umbilical vein endothelial cell (HUVEC) used in the experiment was purchased from Promocell, and cultured in an incubator at 37° C., 5% CO2 using Endothelial Cell Growth Medium 2 as a culture medium. To confirm the proliferation effect of P1P drug, HUVEC cells were treated with P1P or cP1P drug at concentrations of 10 nM, 100 nM and 1000 nM, respectively, and cultured for 48 hours. The cell proliferation rate was measured according to the manufacturer's method using MTT assay (Molecular Probes). As a comparison group, S1P was used at the same concentration and conditions.

Solubility in water = assay type: physicochemical
Balb/c mice = experiment: LPS sepsis mouse model: effect of drugs on survival rate; assay type: in vivo; conditions: for Survival rate (%): drug 40 μg/mouse i.p. 5 minutes after LPS
Description: For the experiment of the survival rate of mice after LPS administration, 7-week-old Balb/c mice were purchased from Orient Bio and adapted to the laboratory. Then, LPS (Sigma) was dissolved in phosphate buffer solution (PBS) at a concentration of 400 μg/mouse, 200 μg/mouse, 170 μg/mouse, 150 μg/mouse, 125 μg/mouse, and 100 μg/mouse, and 100 uL of each was injected into the abdominal cavity of a mouse.
To this end, the LPS concentration was determined to be 150 μg/mouse, and the P1P drug was intraperitoneally injected at a concentration of 40 μg/mouse 5 and 60 minutes after intraperitoneal injection of LPS. The survival rate was measured by observation for 72 hours at 12 hour intervals. In another experiment, P1P drug was injected intraperitoneally at a concentration of 40 μg/mouse 1 hour after intraperitoneal injection of LPS of 125 μg/mouse to compare the survival rate of mice. In the same way, the survival rate was measured while changing the P1P concentration.
To this end, the LPS concentration was determined to be 150 μg/mouse, and the cP1P drug was intraperitoneally injected at a concentration of 40 μg/mouse 5 and 60 minutes after intraperitoneal injection of LPS. The survival rate was measured by observation for 72 hours at 12 hour intervals. In another experiment, cP1P drug was injected intraperitoneally at a concentration of 40 μg/mouse 1 hour after intraperitoneal injection of LPS of 125 μg/mouse to compare the survival rate of mice.
Soybean lecithin called Lipoid S-75 was used to prepare the liposome, and 20 mg of lecithin was dissolved in 1 mL of chloroform. P1P or cP1P was dissolved in 1 mL of chloroform/methanol (2:1, v/v) solvent in an amount of 2 mg, 1 mg or 0.5 mg, respectively, and mixed with the lecithin solution. A thin lipid film was made by removing the organic solvent from the mixed solution using nitrogen gas or a rotary evaporator. The thin lipid film was stored in a vacuum desiccator overnight to completely remove the organic solvent remaining on the film. 5 mL of a phosphate buffer solution was added to the thin lipid film and stirred for 30 minutes to prepare multilamellar vesicles (MLV, large liposomes). The prepared MLV particles were sonicated for 2 minutes in an ice bath to make small unilamellar vesicles (SUV) of 100 nm or less. This sonication process was repeated twice. Only the supernatant obtained by centrifugation of the prepared SUV at 12000 rpm for 5 minutes was used in the experiment. Liposomes containing P1P or cP1P drug (P1P-liposomes/cP1P-liposomes) were used in an experiment to increase the survival rate of mice using LPS. To this end, LPS of 170 μg/mouse, which is higher than the conventional LPS concentration (125-150 μg/mouse), was injected into the abdominal cavity of the mouse. P1P or cP1P drug was administered at 40 μg/mouse 5 minute after LPS administration, and 100 μl of P1P-liposomes and cP1P-liposomes (P1P and cP1P of about 40 μg/mouse) were injected into the abdominal cavity of the mouse, and the survival rate change was determined over time.
The effect of P1P to treat sepsis was tested under the same conditions as described in the experimental method. P1P of 40 μg/mouse was administered intraperitoneally and intravenously 5 minutes after intraperitoneal injection of LPS of 150 μg/mouse. […] When the P1P drug was administered 1 hour after LPS administration, the survival rate was about 40% for intraperitoneal injection and 20% for intravenous injection (FIG. 2b). These indicate that P1P effectively ameliorated sepsis induced after LPS treatment. Furthermore, P1P of 40 μg/mouse was administered by intraperitoneal injection 1 hour after intraperitoneal injection of 125 μg/mouse of LPS. […] In the case of 20 μg/mouse concentration, the survival rate was 80%, and in the case of 10 μg/mouse concentration, the survival rate was about 60% (FIG. 3b). It was confirmed that P1P increased the survival rate in a concentration-dependent manner. […]

[3] = S1P administered directly; cited from earlier work
[4] = RAW264.7, read-out: inhibitory efficacy on inflammatory cytokine (TNF-α) production
[5] = LPS 125 μg/mouse i.p., drug 40 μg/mouse i.p. 1 hour after LPS (FIG. 3a, FIG. 4b)
[6] = LPS 150 μg/mouse i.p., drug 40 μg/mouse intraperitoneally 5 minutes after LPS (FIG. 2a, FIG. 4a)

## CCCCCCCCCCCCCC[C@@H](O)[C@H](O)[C@H](N)COP(=O)(O)O (stereo in doubt) [P1P, Phytosphingosine-1-phosphate]
[1]
  cell viability compared with S1P: higher cell viability than S1P
[1]; 500 μM hydrogen peroxide, untreated control about 40%
  cell viability: ≥ 70%
SIRT1
  expression level of SIRT1 protein: increased SIRT1 protein even at very low concentrations
TNF-α; [4]
  inhibition at 1 µM: 49%
[2]
  efficacy on proliferation of vascular endothelial cells: higher than that of S1P
Solubility in water
  solubility in water: poorly soluble in water
Balb/c mice; [5]
  survival rate: 100%
Balb/c mice; LPS 125 μg/mouse, drug 10 μg/mouse 60 minutes after LPS (FIG. 3b)
  survival rate: about 60%
Balb/c mice; LPS 125 μg/mouse, drug 20 μg/mouse 60 minutes after LPS (FIG. 3b)
  survival rate: 80%
Balb/c mice; LPS 125 μg/mouse, drug 40 μg/mouse 60 minutes after LPS, up to 72 hours (FIG. 3b)
  survival of mice while varying drug concentration: all of them survived up to 72 hours
Balb/c mice; LPS 150 μg/mouse i.p., 0 h
  Survival rate (%): 100%
Balb/c mice; LPS 150 μg/mouse i.p., 12 h
  Survival rate (%): 100%
Balb/c mice; LPS 150 μg/mouse i.p., 24 h
  Survival rate (%): 100%
Balb/c mice; LPS 150 μg/mouse i.p., 48 h
  Survival rate (%): 80%
Balb/c mice; LPS 150 μg/mouse i.p., 72 h
  Survival rate (%): 80%
Balb/c mice; [6]
  survival rate: ≥ 80%
Balb/c mice; LPS 150 μg/mouse i.p., drug 40 μg/mouse intravenously 5 minutes after LPS (FIG. 2a)
  survival rate: ≥ 80%
Balb/c mice; LPS 150 μg/mouse i.p., drug by intraperitoneal injection 1 hour after LPS (FIG. 2b)
  survival rate: about 40%
Balb/c mice; LPS 150 μg/mouse i.p., drug by intravenous injection 1 hour after LPS (FIG. 2b)
  survival rate: 20%
Balb/c mice; LPS 170 μg/mouse i.p., 0 h
  Survival rate (%): 100%
Balb/c mice; LPS 170 μg/mouse i.p., 12 h
  Survival rate (%): 80%
Balb/c mice; LPS 170 μg/mouse i.p., 24 h
  Survival rate (%): 40%
Balb/c mice; LPS 170 μg/mouse i.p., 36 h
  Survival rate (%): 20%
Balb/c mice; LPS 170 μg/mouse i.p., 48 h
  Survival rate (%): 20%
Balb/c mice; LPS 170 μg/mouse i.p., 72 h
  Survival rate (%): 20%

## CCCCCCCCc1ccc(CCC(N)(CO)CO)cc1 [FTY720, fingolimod, reference compound]
Balb/c mice; LPS 150 μg/mouse i.p., 0 h
  Survival rate (%): 100%
Balb/c mice; LPS 150 μg/mouse i.p., 12 h
  Survival rate (%): 100%
Balb/c mice; LPS 150 μg/mouse i.p., 24 h
  Survival rate (%): 40%
Balb/c mice; LPS 150 μg/mouse i.p., 36 h
  Survival rate (%): 20%
Balb/c mice; LPS 150 μg/mouse i.p., 48 h
  Survival rate (%): 20%
Balb/c mice; LPS 150 μg/mouse i.p., 72 h
  Survival rate (%): 20%

## CCCCCCCCCCCCC/C=C/[C@@H](O)[C@@H](N)COP(=O)(O)O [S1P, sphingosine-1-phosphate, reference compound]
TNF-α; RAW264.7, 1 μM, Raw 264.7 macrophages, drug 6 hours before LPS, LPS 4 hours, ELISA, read-out: inhibitory efficacy on inflammatory cytokine (TNF-α) production
  inhibition at 1 µM: 19%
[3]
  degradation rate in the blood: high degradation rate in the blood
Balb/c mice; LPS 150 μg/mouse i.p., 0 h
  Survival rate (%): 100%
Balb/c mice; LPS 150 μg/mouse i.p., 12 h
  Survival rate (%): 100%
Balb/c mice; LPS 150 μg/mouse i.p., 36 h
  Survival rate (%): 40%
Balb/c mice; LPS 150 μg/mouse i.p., 48 h
  Survival rate (%): 40%
Balb/c mice; LPS 150 μg/mouse i.p., 72 h
  Survival rate (%): 40%

## CCCCCCCCCCCCCC[C@@H](O)[C@H]1OP(=O)(O)OC[C@@H]1N [cP1P, O-cyclic P1P]
[1]
  cell viability compared with S1P: higher cell viability than S1P
SIRT1
  expression level of SIRT1 protein: increased SIRT1 protein even at very low concentrations
TNF-α; [4]
  inhibition at 1 µM: 35%
[2]
  efficacy on proliferation of vascular endothelial cells: higher than that of S1P
Solubility in water
  solubility in water: poorly soluble in water
Balb/c mice; [5]
  survival rate: about 100%
Balb/c mice; [6]
  survival rate: ≥ 70%
Balb/c mice; LPS 170 μg/mouse i.p., 0 h
  Survival rate (%): 100%
Balb/c mice; LPS 170 μg/mouse i.p., 12 h
  Survival rate (%): 80%
Balb/c mice; LPS 170 μg/mouse i.p., 24 h
  Survival rate (%): 60%
Balb/c mice; LPS 170 μg/mouse i.p., 36 h
  Survival rate (%): 40%
Balb/c mice; LPS 170 μg/mouse i.p., 48 h
  Survival rate (%): 40%
Balb/c mice; LPS 170 μg/mouse i.p., 72 h
  Survival rate (%): 40%
